This experiment has as its target GPR84 (Mus musculus, UniProt Q8CIM5). Nature of the experiment: real-time cell impedance in LPS-primed mouse BMDMs, WT versus GPR84-/-. It is filed as cell-based.

Chain of GPR84 (Q8CIM5 whole entry): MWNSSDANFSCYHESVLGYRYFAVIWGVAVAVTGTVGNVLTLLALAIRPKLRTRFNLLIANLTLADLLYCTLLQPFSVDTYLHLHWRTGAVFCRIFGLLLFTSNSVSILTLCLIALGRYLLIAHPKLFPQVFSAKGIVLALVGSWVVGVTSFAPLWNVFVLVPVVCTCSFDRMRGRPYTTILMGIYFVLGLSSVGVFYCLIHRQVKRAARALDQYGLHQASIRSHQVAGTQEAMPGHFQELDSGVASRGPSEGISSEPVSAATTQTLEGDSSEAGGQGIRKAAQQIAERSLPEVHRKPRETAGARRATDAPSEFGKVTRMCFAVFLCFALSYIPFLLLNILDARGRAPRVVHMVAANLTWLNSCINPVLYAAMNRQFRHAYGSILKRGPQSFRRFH

Turning to `CCCCCCCCNc1cc(=O)[nH]c(=O)[nH]1` [6-OAU, 6-(octylamino) pyrimidine-2,4(1H,3H)-dione], the “real-time cell impedance in LPS-primed mouse BMDMs, WT versus GPR84-/-” value is reported as “no response was observed when adding any dose of 6-OAU to GPR84^−/− cells”.

These data come from PMC6019444, “Activation of the Immune-Metabolic Receptor GPR84 Enhances Inflammation and Phagocytosis in Macrophages” (Frontiers in Immunology, 2018).
